Experimental data reported in ChEMBL document CHEMBL4610051, “Spirobiflavonoid stereoisomers from the endangered conifer Glyptostrobus pensilis and their protein tyrosine phosphatase 1B inhibitory activity” (Bioorg Med Chem Lett, 2020).

What follows are molecules tested against T1, Tyrosine-protein phosphatase non-receptor type 1 (Homo sapiens, UniProt P18031) (assay: Inhibition of human PTP1B).
T1 sequence (P18031 whole entry): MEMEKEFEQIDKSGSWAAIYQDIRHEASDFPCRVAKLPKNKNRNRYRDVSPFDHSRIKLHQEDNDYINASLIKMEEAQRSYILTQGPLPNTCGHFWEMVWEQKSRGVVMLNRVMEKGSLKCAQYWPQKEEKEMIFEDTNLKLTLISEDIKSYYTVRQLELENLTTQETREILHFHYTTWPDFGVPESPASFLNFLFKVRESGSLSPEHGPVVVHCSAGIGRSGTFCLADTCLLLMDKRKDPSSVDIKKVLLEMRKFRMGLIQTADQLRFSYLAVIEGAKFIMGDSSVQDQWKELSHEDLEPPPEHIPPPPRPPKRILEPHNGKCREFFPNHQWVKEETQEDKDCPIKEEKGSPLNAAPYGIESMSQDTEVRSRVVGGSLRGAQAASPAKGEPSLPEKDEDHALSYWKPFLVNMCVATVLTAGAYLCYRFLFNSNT

| IC50 [µM] | SMILES |
| --- | --- |
| 8.1 | O=C1Oc2cc(O)c3c(c2[C@@]12c1c(O)cc(O)cc1O[C@@H]2c1ccc(O)cc1)O[C@H](c1ccc(O)cc1)[C@H](O)C3 |
| 4.6 | O=C1Oc2cc(O)c3c(c2[C@@]12c1c(O)cc(O)cc1O[C@H]2c1ccc(O)cc1)O[C@H](c1ccc(O)cc1)[C@@H](O)C3 |
| 11.2 | O=C1Oc2cc(O)c3c(c2[C@]12c1c(O)cc(O)cc1O[C@H]2c1ccc(O)cc1)O[C@H](c1ccc(O)cc1)[C@@H](O)C3 |
| 3.3 | O=C1Oc2cc(O)c3c(c2[C@]12c1c(O)cc(O)cc1O[C@@H]2c1ccc(O)cc1)O[C@H](c1ccc(O)cc1)[C@@H](O)C3 |
| 17.1 | O=C1Oc2cc(O)c3c(c2[C@@]12c1c(O)cc(O)cc1O[C@@H]2c1ccc(O)cc1)O[C@H](c1ccc(O)cc1)[C@@H](O)C3 |
| 12.9 | O=C1Oc2cc(O)c3c(c2[C@]12c1c(O)cc(O)cc1O[C@@H]2c1ccc(O)cc1)O[C@H](c1ccc(O)cc1)[C@H](O)C3 [LARIXINOL] |
